Experiment: Stability of SBA and SBB in plasma QC samples
Assay type: in vitro ADME, rat
Conditions: three freeze–thaws, long-term, short-term, post-preparative
Procedure: Next, we wanted to investigate the effect of baicalein on the PKs of silybin in vivo. A validated analytical method for the determination of silybin and its total conjugates in rat plasma by LC-MS was developed based on a previous report with minor modifications ([Yuan et al., 2017]). […] The results of precision and accuracy for intra- and inter-day evaluation are presented in Supplementary Table S2. The lower limit of quantification (LLOQ) was 5 ng/ml with relative standard deviation (RSD) ≤6.4%. The RSD values of quality control (QC) samples examined for precision were within 6.4%, while the accuracy ranged from 91.7 to 109.5%. It can be seen from Supplementary Table S2 that the extraction recoveries of silybin A and B were above 84.4% in plasma. Stability of SBA and SBB in plasma was also tested using QC samples at four different concentrations in the stability tests of three freeze–thaws, long-term, short-term, and post-preparative.
S. Table 1.Calibration curves for determination of S Ba, and S Bb in plasm a samples.
Cpd. Standard curv es R2 R ange
S. Table 2.P recision,accurac y and recover y for determination of S Ba, and S Bb in […]
S. Table 3. Stabilit y t esting results for determination of SBa, and S Bb in plasma […]
Initial a Freeze- thaw b Short-t e r m b Long- t e r m b Post-Prep. b […]
a. Contents of silybin and tangeretin in the freshly prepared QC samples. b. […]

| stability in plasma | SMILES |
| --- | --- |
| without significant loss | COc1cc([C@H]2Oc3cc([C@H]4Oc5cc(O)cc(O)c5C(=O)[C@@H]4O)ccc3O[C@@H]2CO)ccc1O [silybin A] |
| without significant loss | COc1cc([C@@H]2Oc3cc([C@H]4Oc5cc(O)cc(O)c5C(=O)[C@@H]4O)ccc3O[C@H]2CO)ccc1O [silybin B] |
